These molecules were tested on human EPO expression (assay: In vivo assay: human EPO expression in plasma after IV injection of LNP containing human EPO mRNA (human EPO ELISA)). Settings: 0.5 mg/kg LNP with human EPO mRNA, 4 h post dosing, Balb/C mice plasma (n = 4-5), cationic lipid at 55 mol %, 1.6 mol % PEG2000-C-DMA, 33% cholesterol, 11% DSPC.
Parameters: species or system female Balb/C mice
Procedure: Lipid stocks were prepared (about 7 mg/mL total lipid content) in 100% ethanol, using the lipid identities and molar ratios described. The mRNA was diluted in acetate pH 5 and nuclease-free water to reach a concentration of 0.366 mg/mL mRNA in 100 mM acetate pH 5. Equal volumes of each solution were blended at 400 mL/min in a T-connector, and diluted with about 4 volumes of PBS, pH 7.4, using the direct dilution method described in U.S. Pat. No. 9,404,127. Formulations were then placed in Slide-A-Lyzer dialysis units (MWCO 10,000) and were dialyzed overnight 10 mM Tris, 500 mM NaCl pH 8 (Tris/NaCl buffer). Following dialysis the formulations were concentrated to about 0.6 mg/mL using VivaSpin concentrator units (MWCO 100,000) and then filtered through a 0.2 um syringe filter.
The various lipids of the present invention were formulated in LNP compositions with the following molar ratios: DSPC (11%):Chol (33%):PEG2000-C-DMA (1.6%):Lipid X (55%). A composition was generated comprising the following components: • (a) nucleic acid; • (b) a mixture of cholesterol and DSPC; • (c) a conjugated lipid of formula: […]
Generally, the LNP were injected intravenously at 0.5 mg/kg to female Balb/C mice, 5-8 weeks old and blood was collected at 4-6 hours post dosing; blood is collected into K2EDTA and processed to plasma, then stored frozen at −80° C. until analysis. Activity was assayed by testing the plasma for human EPO expression using an human EPO ELISA kit either from StemCell (catalogue #01630) or R&D Systems (catalogue DEP00) following the manufacturer's instructions.

Question: With `CCCCCCCCCO[Si](CCCN(C)C)(OCCCCCCCCC)OCCCCCCCCC` [Example 6] as the molecule, how does the EPO read?
Answer: Its EPO is 25596 mU/mL.

Question: For `CCCCC/C=C\CCCC(CCC/C=C\CCCCC)CO[Si](CCCN(C)C)(OCC(CCC/C=C\CCCCC)CCC/C=C\CCCCC)OCC(CCC/C=C\CCCCC)CCC/C=C\CCCCC` [Example 22], which EPO is on record?
Answer: Its EPO is 15075 mU/mL.

Question: `CCCCC/C=C\CCCO[Si](CCCCN(C)C)(OCCC/C=C\CCCCC)OCCC/C=C\CCCCC` [Example 4] was tested. Which EPO did it give?
Answer: The EPO was 1300807 mU/mL.

Question: Which EPO does the source give for `CCCCC/C=C\CCCO[Si](CCCCCN(C)C)(OCCC/C=C\CCCCC)OCCC/C=C\CCCCC` [Example 20] here?
Answer: Its EPO is 2242992 mU/mL.

Question: Which EPO does the source give for `CCCCC/C=C\CCCO[Si](CCCCCCN(C)C)(OCCC/C=C\CCCCC)OCCC/C=C\CCCCC` [Example 21] here?
Answer: Its EPO is 1470419 mU/mL.

Question: Which EPO does the source give for `CCCCCCCCCCO[Si](CCCCN(C)C)(OCCCCCCCCCC)OCCCCCCCCCC` [Example 11] here?
Answer: The EPO was 256974 mU/mL.

Question: With `CCCCC/C=C\CCCO[Si](CCCCN(C)CCO)(OCCC/C=C\CCCCC)OCCC/C=C\CCCCC` [Example 8] as the molecule, how does the EPO read?
Answer: The EPO was 30446 mU/mL.

Question: With `CCCCC/C=C\CCCC(CCC/C=C\CCCCC)O[Si](CCCCN1CCC(CO)CC1)(OC(CCC/C=C\CCCCC)CCC/C=C\CCCCC)OC(CCC/C=C\CCCCC)CCC/C=C\CCCCC` [Example 15] as the molecule, how does the EPO read?
Answer: The EPO was 18385 mU/mL.

Question: `CCCCC/C=C\CCCO[Si](CCCCN1CCC(CO)CC1)(OCCC/C=C\CCCCC)OCCC/C=C\CCCCC` [Example 9] was tested. Which EPO did it give?
Answer: The EPO was 37927 mU/mL.

Question: With `C=C(C)C1CC=C(CO[Si](CCCCN(C)C)(OCC2=CCC(C(=C)C)CC2)OCC2=CCC(C(=C)C)CC2)CC1` (stereo not shown) [Example 23] as the molecule, how does the EPO read?
Answer: The EPO was 17488 mU/mL.

Question: Which EPO does the source give for `CCCCC/C=C\CCCO[Si](CCCN(C)C)(OCCC/C=C\CCCCC)OCCC/C=C\CCCCC` [Example 2] here?
Answer: The EPO was 144176 mU/mL.

Question: How did the EPO turn out when `CN(C)CCCC[Si](OCC12CC3CC(CC(C3)C1)C2)(OCC12CC3CC(CC(C3)C1)C2)OCC12CC3CC(CC(C3)C1)C2` [Example 17] was run?
Answer: Its EPO is 226593 mU/mL.

Question: Which EPO does the source give for `CCCCCCC(CCCC)CO[Si](CCCCN(C)C)(OCC(CCCC)CCCCCC)OCC(CCCC)CCCCCC` (stereo not shown) [Example 19] here?
Answer: The EPO was 47218 mU/mL.

— patent publication US12350383B2, “Cationic lipids containing silicon” (ARBUTUS BIOPHARMA CORPORATION, priority 2018, dated 2025)
